Results: US20060069132A1, “Azolecarboxamide herbicides” (priority 2004, published 2006)

Legend:
johnsongrass = assay: Test C pre-/postemergence herbicide test; assay type: in vivo, Sorghum halepense; conditions: for Johnsongrass plant response rating: 500 g ai/ha
Source text: (§1) Seeds of plant species selected from bermudagrass (Cynodon dactylon (L.) Pers.), Surinam grass (Urochloa decumbens (Staph) R. D. Webster, previously named Brachiaria decumbens Stapf), cocklebur (Xanthium strumarium L.), corn (Zea mays L.), large crabgrass (Digitaria sanguinalis (L.) Scop.), woolly cupgrass (Eriochloa villosa (Thunb.) Kunth), giant foxtail (Setaria faberi Herrm.), goosegrass (Eleusine indica (L.) Gaertn.), johnsongrass (Sorghum halepense (L.) Pers.), kochia (Kochia scoparia (L.) Schrad.), lambsquarters (Chenopodium album L.), morningglory (Ipomoea coccinea L.), eastern black nightshade (Solanum ptycanthum Dunal), yellow nutsedge (Cyperus esculentus L.), pigweed (Amaranthus retroflexus L.), common ragweed (Ambrosia elatior L.), soybean (Glycine max (L.) Merr.), common (oilseed) sunflower (Helianthus annuus L.) and velvetleaf (Abutilon theophrasti Medik.) were planted and treated preemergence with test chemicals formulated in a non-phytotoxic solvent mixture which included a surfactant.
(§2) At the same time, plants selected from these crop and weed species and also winter barley (Hordeum vulgare L.), blackgrass (Alopecurus myosuroides Huds.), canarygrass (Phalaris minor Retz.), chickweed (Stellaria media (L.) Vill.), downy bromegrass (Bromus tectorum L.), green foxtail (Setaria viridis (L.) Beauv.), Italian ryegrass (Lolium multiflorum Lam.), wheat (Triticum aestivum L.), wild oat (Avenafatua L.) and windgrass (Apera spica-venti (L.) Beauv.) were treated with postemergence applications of some of the test chemicals formulated in the same manner. Plants ranged in height from 2 to 18 cm (1- to 4-leaf stage) for postemergence treatments. Plant species in the flooded paddy test consisted of rice (Oryza sativa), smallflower umbrella sedge (Cyperus difformis L.), ducksalad (Heteranthera limosa (Sw.) Willd.) and barnyardgrass (Echinochloa crus-galli (L.) Beauv.) grown to the 2-leaf stage for testing. Treated plants and controls were maintained in a greenhouse for 12 to 14 days, after which time all species were compared to controls and visually evaluated. Plant response ratings, summarized in Table C, are based on a scale of 0 to 100 where 0 is no effect and 100 is complete control. A dash (-) response means no test result.

giant foxtail [1] = assay: Test C pre-/postemergence herbicide test; assay type: in vivo, Setaria faberi; conditions: for Foxtail, Giant plant response rating: 500 g ai/ha
Source text: as §1, §2

Surinam grass = assay: Test C pre-/postemergence herbicide test; assay type: in vivo, Urochloa decumbens; conditions: for Surinam Grass plant response rating: 500 g ai/ha
Source text: as §1, §2

morningglory = assay: Test C pre-/postemergence herbicide test; assay type: in vivo, Ipomoea coccinea; design: key to Plant response rating, Morningglory: 0 = no effect, 100 = complete control; conditions: for Morningglory plant response rating: 500 g ai/ha
Source text: as §1, §2

yellow nutsedge = assay: Test C pre-/postemergence herbicide test; assay type: in vivo, Cyperus esculentus; conditions: for Nutsedge, Yellow plant response rating: 500 g ai/ha
Source text: as §1, §2

cocklebur = assay: Test C pre-/postemergence herbicide test; assay type: in vivo, Xanthium strumarium; conditions: for Cocklebur plant response rating: 500 g ai/ha
Source text: as §1, §2

barnyardgrass [2] = assay: Test C flooded paddy test; assay type: in vivo, Echinochloa crus-galli; conditions: for Plant response rating, Barnyardgrass: 500 g ai/ha, visual rating after 12 to 14 days
Procedure, shortened: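 Weeds and wheat were sprayed after emergence, at a height of 2 to 18 cm (1–4 leaves), and paddy barnyardgrass was flooded and treated at two leaves. Assessment took place 12–14 days later in the greenhouse on a 0-to-100 visual control scale. A dash means no result was obtained.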

ducksalad = assay: Test C flooded paddy test; assay type: in vivo, Heteranthera limosa; conditions: for Plant response rating, Ducksalad: 500 g ai/ha, visual rating after 12 to 14 days
velvetleaf = assay: Test A pre-/postemergence herbicide test; assay type: in vivo, Abutilon theophrasti
Procedure, shortened: (§3)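 Visual injury scores on a 0–100 scale (100 = complete control) taken about ten days post-treatment in greenhouse against untreated controls; dash means no result. Treatments: preemergence soil spray and postemergence spray to runoff on one- to two-leaf plants 2 to 10 cm tall, surfactant-containing formulation.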

redroot pigweed = assay: Test A pre-/postemergence herbicide test; assay type: in vivo, Amaranthus retroflexus
Procedure, shortened: as §3

barnyardgrass [3] = assay: Test A pre-/postemergence herbicide test; assay type: in vivo, Echinochloa crus-galli
Procedure, shortened: as §3

giant foxtail [4] = assay: Test A pre-/postemergence herbicide test; assay type: in vivo, Setaria faberi
Procedure, shortened: as §3

[5] = Postemergence, 250 g ai/ha, scale 0 to 100, 0 no effect, 100 complete control
[6] = postemergence, 125 g ai/ha, scale 0 to 100
[7] = postemergence, 62 g ai/ha, scale 0 to 100
[8] = 62 g ai/ha, scale 0 to 100 (0 no effect, 100 complete control)
[9] = 125 g ai/ha, scale of 0 to 100, 0 is no effect, 100 is complete control
[10] = 250 g ai/ha, scale of 0 to 100, 0 is no effect, 100 is complete control
[11] = scale 0 to 100 (0 no effect, 100 complete control)
[12] = Postemergence, 500 g ai/ha, 0 to 100 scale, 0 no effect, 100 complete control
[13] = Postemergence, 2000 g ai/ha, 0 to 100 scale, 0 no effect, 100 complete control
[14] = Preemergence, 500 g ai/ha, visual rating, 0 to 100 scale (0 no effect, 100 complete control)
[15] = Preemergence, 2000 g ai/ha, visual rating, 0 to 100 scale (0 no effect, 100 complete control)
[16] = Preemergence, 2000 g ai/ha, 0 to 100 scale, 0 no effect, 100 complete control
[17] = preemergence, 500 g ai/ha, visual injury, 0 to 100 scale (0 no effect, 100 complete control)
[18] = 125 g ai/ha, scale 0 to 100 (0 no effect, 100 complete control)

## CCn1nc(C(C)(C)C)cc1C(=O)Nc1cccc(C(=O)OC)c1 [Compound 81]
johnsongrass; [5]
  Plant response rating, Johnsongrass: 5
johnsongrass; [6]
  Plant response rating, Johnsongrass: 0
johnsongrass; [7]
  Plant response rating, Johnsongrass: 0
Giant foxtail [1]; [5]
  Plant response rating, Foxtail, Giant: 20
Giant foxtail [1]; [6]
  Plant response rating, Foxtail, Giant: 10
Giant foxtail [1]; [7]
  Plant response rating, Foxtail, Giant: 10
Surinam grass; [5]
  Plant response rating, Surinam Grass: 80
Surinam grass; [6]
  Plant response rating, Surinam Grass: 50
Surinam grass; [7]
  Plant response rating, Surinam Grass: 50
morningglory; [5]
  Plant response rating, Morningglory: 10
morningglory; [6]
  Plant response rating, Morningglory: 10
morningglory; [7]
  Plant response rating, Morningglory: 10
Yellow nutsedge; [5]
  Plant response rating, Nutsedge, Yellow: 0
Yellow nutsedge; [6]
  Plant response rating, Nutsedge, Yellow: 0
Yellow nutsedge; [7]
  Plant response rating, Nutsedge, Yellow: 0
cocklebur; [5]
  Plant response rating, Cocklebur: 60
cocklebur; [6]
  Plant response rating, Cocklebur: 55
cocklebur; postemergence, 31 g ai/ha, scale 0 to 100
  Plant response rating, Cocklebur: 50
cocklebur; [7]
  Plant response rating, Cocklebur: 55
Barnyardgrass [2]; [8]
  Barnyardgrass plant response rating: 0
Barnyardgrass [2]; [9]
  Barnyardgrass plant response rating: 0
Barnyardgrass [2]; [10]
  Barnyardgrass plant response rating: 0
Barnyardgrass [2]; [11]
  Plant response rating, Barnyardgrass: 30
ducksalad; [8]
  Ducksalad plant response rating: 0
ducksalad; [9]
  Ducksalad plant response rating: 0
ducksalad; [10]
  Ducksalad plant response rating: 20
ducksalad; [11]
  Plant response rating, Ducksalad: 20

## C#CCOC(=O)c1cccc(NC(=O)c2cc(C(C)(C)C)nn2CC)c1 [Compound 84]
johnsongrass; Postemergence, scale 0 to 100
  Johnsongrass plant response rating: 0
johnsongrass; [5]
  Plant response rating, Johnsongrass: 0
johnsongrass; [6]
  Plant response rating, Johnsongrass: 0
johnsongrass; [7]
  Plant response rating, Johnsongrass: 0
velvetleaf; [12]
  Velvetleaf plant response rating: 20
velvetleaf; [13]
  Plant response rating, Velvetleaf: 20
velvetleaf; [14]
  Velvetleaf plant response rating: 0
velvetleaf; [15]
  Velvetleaf plant response rating: 0
Giant foxtail [1]; Postemergence, scale 0 to 100
  Foxtail, Giant plant response rating: 0
Giant foxtail [1]; [5]
  Plant response rating, Foxtail, Giant: 0
Giant foxtail [1]; [6]
  Plant response rating, Foxtail, Giant: 0
Giant foxtail [1]; [7]
  Plant response rating, Foxtail, Giant: 0
Surinam grass; Postemergence, scale 0 to 100
  Surinam Grass plant response rating: 10
Surinam grass; [5]
  Plant response rating, Surinam Grass: 0
Surinam grass; [6]
  Plant response rating, Surinam Grass: 0
Surinam grass; [7]
  Plant response rating, Surinam Grass: 0
morningglory; Postemergence, scale 0 to 100
  Morningglory plant response rating: 0
morningglory; [5]
  Plant response rating, Morningglory: 0
morningglory; [6]
  Plant response rating, Morningglory: 0
morningglory; [7]
  Plant response rating, Morningglory: 0
Redroot pigweed; [12]
  Pigweed plant response rating: 50
Redroot pigweed; [13]
  Plant response rating, Pigweed: 45
Redroot pigweed; [14]
  Pigweed plant response rating: 0
Redroot pigweed; [16]
  Pigweed plant response rating: 0
Yellow nutsedge; Postemergence, scale 0 to 100
  Nutsedge, Yellow plant response rating: 0
Yellow nutsedge; [5]
  Plant response rating, Nutsedge, Yellow: 0
Yellow nutsedge; [6]
  Plant response rating, Nutsedge, Yellow: 0
Yellow nutsedge; [7]
  Plant response rating, Nutsedge, Yellow: 0
Barnyardgrass [3]; [12]
  Barnyardgrass plant response rating: 15
Barnyardgrass [3]; [13]
  Plant response rating, Barnyardgrass: 10
Barnyardgrass [3]; [14]
  Barnyardgrass plant response rating: 0
Barnyardgrass [3]; [16]
  Barnyardgrass plant response rating: 0
Giant foxtail [4]; [12]
  Foxtail, Giant plant response rating: 15
Giant foxtail [4]; [13]
  Plant response rating, Foxtail, Giant: 10
Giant foxtail [4]; [14]
  Foxtail, Giant plant response rating: 0
Giant foxtail [4]; [16]
  Foxtail, Giant plant response rating: 0
cocklebur; Postemergence, scale 0 to 100
  Cocklebur plant response rating: 0
cocklebur; [5]
  Plant response rating, Cocklebur: 0
cocklebur; [6]
  Plant response rating, Cocklebur: 0
cocklebur; [7]
  Plant response rating, Cocklebur: 0

## C=CCOC(=O)c1cccc(NC(=O)c2cc(C(C)(C)C)nn2CC)c1 [Compound 85]
johnsongrass; Postemergence, scale 0 to 100
  Johnsongrass plant response rating: 80
johnsongrass; [5]
  Plant response rating, Johnsongrass: 20
johnsongrass; [6]
  Plant response rating, Johnsongrass: 10
johnsongrass; [7]
  Plant response rating, Johnsongrass: 10
velvetleaf; [12]
  Velvetleaf plant response rating: 30
velvetleaf; [13]
  Plant response rating, Velvetleaf: 20
velvetleaf; [14]
  Velvetleaf plant response rating: 0
velvetleaf; [15]
  Velvetleaf plant response rating: 0
Giant foxtail [1]; Postemergence, scale 0 to 100
  Foxtail, Giant plant response rating: 70
Giant foxtail [1]; [5]
  Plant response rating, Foxtail, Giant: 50
Giant foxtail [1]; [6]
  Plant response rating, Foxtail, Giant: 20
Giant foxtail [1]; [7]
  Plant response rating, Foxtail, Giant: 10
Surinam grass; Postemergence, scale 0 to 100
  Surinam Grass plant response rating: 80
Surinam grass; [5]
  Plant response rating, Surinam Grass: 80
Surinam grass; [6]
  Plant response rating, Surinam Grass: 30
Surinam grass; [7]
  Plant response rating, Surinam Grass: 25
morningglory; Postemergence, scale 0 to 100
  Morningglory plant response rating: 80
morningglory; [5]
  Plant response rating, Morningglory: 60
morningglory; [6]
  Plant response rating, Morningglory: 40
morningglory; [7]
  Plant response rating, Morningglory: 10
Redroot pigweed; [12]
  Pigweed plant response rating: 75
Redroot pigweed; [13]
  Plant response rating, Pigweed: 70
Redroot pigweed; [14]
  Pigweed plant response rating: 0
Redroot pigweed; [16]
  Pigweed plant response rating: 5
Yellow nutsedge; Postemergence, scale 0 to 100
  Nutsedge, Yellow plant response rating: 40
Yellow nutsedge; [5]
  Plant response rating, Nutsedge, Yellow: 20
Yellow nutsedge; [6]
  Plant response rating, Nutsedge, Yellow: 20
Yellow nutsedge; [7]
  Plant response rating, Nutsedge, Yellow: 10
Barnyardgrass [3]; [12]
  Barnyardgrass plant response rating: 20
Barnyardgrass [3]; [13]
  Plant response rating, Barnyardgrass: 25
Barnyardgrass [3]; [14]
  Barnyardgrass plant response rating: 0
Barnyardgrass [3]; [16]
  Barnyardgrass plant response rating: 0
Giant foxtail [4]; [12]
  Foxtail, Giant plant response rating: 20
Giant foxtail [4]; [13]
  Plant response rating, Foxtail, Giant: 30
Giant foxtail [4]; [14]
  Foxtail, Giant plant response rating: 0
Giant foxtail [4]; [16]
  Foxtail, Giant plant response rating: 0
cocklebur; Postemergence, scale 0 to 100
  Cocklebur plant response rating: 100
cocklebur; [5]
  Plant response rating, Cocklebur: 100
cocklebur; [6]
  Plant response rating, Cocklebur: 80
cocklebur; [7]
  Plant response rating, Cocklebur: 20

## CCn1nc(C(C)(C)C)cc1C(=O)Nc1cccc(C(=O)N2CC=CC2)c1 [Compound 286]
velvetleaf; [12]
  Velvetleaf plant response rating: 30
velvetleaf; [13]
  Plant response rating, Velvetleaf: 50
velvetleaf; [15]
  Velvetleaf plant response rating: 70
velvetleaf; [17]
  Velvetleaf plant response rating: 20
Redroot pigweed; [12]
  Pigweed plant response rating: 55
Redroot pigweed; [13]
  Plant response rating, Pigweed: 85
Redroot pigweed; [15]
  Pigweed plant response rating: 95
Redroot pigweed; [17]
  Pigweed plant response rating: 85
Barnyardgrass [3]; [12]
  Barnyardgrass plant response rating: 60
Barnyardgrass [3]; [13]
  Plant response rating, Barnyardgrass: 80
Barnyardgrass [3]; [15]
  Barnyardgrass plant response rating: 85
Barnyardgrass [3]; [17]
  Barnyardgrass plant response rating: 75
Giant foxtail [4]; [12]
  Foxtail, Giant plant response rating: 35
Giant foxtail [4]; [13]
  Plant response rating, Foxtail, Giant: 75
Giant foxtail [4]; [15]
  Foxtail, Giant plant response rating: 100
Giant foxtail [4]; [17]
  Foxtail, Giant plant response rating: 60
Barnyardgrass [2]; [8]
  Barnyardgrass plant response rating: 40
Barnyardgrass [2]; [18]
  Barnyardgrass plant response rating: 55
Barnyardgrass [2]; [10]
  Barnyardgrass plant response rating: 70
Barnyardgrass [2]; [11]
  Plant response rating, Barnyardgrass: 80
ducksalad; 62 g ai/ha, scale 0 to 100
  Ducksalad plant response rating: 50
ducksalad; [18]
  Ducksalad plant response rating: 75
ducksalad; [10]
  Ducksalad plant response rating: 90
ducksalad; [11]
  Plant response rating, Ducksalad: 90
